# “Also recorded” adds a separate entry of the source.
# Experiments:
# p53Y220C [1] = molecular target: T1, p53Y220C (Homo sapiens, UniProt P04637, Y220C); settings: cited from earlier work
# [2] = test system: p53 WT U-2OS cancer cells; assay: Cell viability assay; format: cell-based; settings: 72 h; for inhibition of cell growth at the highest concentration tested: 10 μM
# p53-target genes [3] = assay: RT-qPCR of p53-target genes in NCI-H1299 p53Y220C stable cells; format: cell-based; settings: 10 μM, 24 h; for increase in p21 mRNA expression: relative to DMSO
# BxPC3 (p53Y220C/−) cells = settings: for GI50: 72 h
# NCI-H1299 p53-null cells [4] = assay: Cell viability assay; format: cell-based; settings: 72 h
# PNT2 cells = assay: Cytotoxicity in normal prostate cell line PNT2; format: cell-based; settings: read-out: GI50 (cytotoxicity)
# NCI-H1299 p53-null cells [5] = assay: Western blot of p53K382ac level in NCI-H1299 p53-null cells; format: cell-based; settings: 0, 1, 3, 10 μM, 24 h
# [6] = test system: NUGC-3 (p53Y220C/+) cells; settings: 72 h
# NUGC-3 cells = assay: Clonogenic assay, NUGC-3; format: cell-based; settings: 1, 3, 10 μM, 14 days; compared to PK9328 and compound 33
# p53Y220C [7] = molecular target: T1, p53Y220C; assay: Western blot of p53K382ac level in BxPC3 cells; format: cell-based; settings: 10 μM, 24 h
# p53Y220C [8] = molecular target: T1, p53Y220C; assay: Western blot / FLAG-IP of p53K382ac level in NCI-H1299; format: cell-based
# p53Y220C and p300 = p53Y220C and p300 (Homo sapiens, UniProt P04637+Q09472, Y220C); assay: p53-FLAG pull-down of p53Y220C-p300 ternary complex; format: cell-based; settings: 24 h
# p53-target genes [9] = assay: RNA-seq in NCI-H1299 p53-null and p53Y220C cells; format: cell-based, human; settings: 10 μM, 24 h
# p53Y220C [10] = molecular target: T1, p53Y220C; assay: Western blot of p53K382ac level in NUGC-3 cells; format: cell-based; settings: 10 μM, 24 h
# BxPC3 cells = assay: Clonogenic assay, BxPC3; format: cell-based; settings: 1, 3, 10 μM, 14 days; compared to PK9328 and compound 33
# [11] = test system: other bromodomain-containing proteins; assay: BromoMelt profiling against other bromodomain-containing proteins; settings: 10 μM, duplicates
# [12] = p300-siRNA 72 h, then compound 72 h
structure (smiles),measurement,setting,value
CCn1c2ccc(CNC)cc2c2ccc(-c3cscn3)cc21 [PK9323],stabilizes p53Y220C with a melting temperature (Tm),p53Y220C [1],3.1 °C
"CCn1c2ccc(CNC)cc2c2ccc(-c3cc(C)cs3)cc21 [PK9328, reference compound]",reduction in the cell growth in p300-siRNA-treated cells,NCI-H1299 p53Y220C cells; [12],about 50%
same,inhibition of cell growth at the highest concentration tested,[2],30–40%
same,GI50,[2],> 10 µM
same,"effect on TIGAR, BAX, and PUMA (BBC3) genes",p53-target genes [3],little or modest effect
same,expression of p21 (CDKN1A) and Mdm2 genes,p53-target genes [3],upregulated
same,increase in p21 mRNA expression,p53-target genes [3],12 fold
same,GI50,BxPC3 (p53Y220C/−) cells,13.9 ± 2.4 µM
same,cell growth inhibition,NCI-H1299 p53-null cells [4],did not induce any significant cell growth inhibition
same,GI50,PNT2 cells,> 10 µM
same,K382 acetylation,NCI-H1299 p53-null cells [5],did not significantly induce K382 acetylation
same,GI50,[6],12.6 ± 1.9 µM
CCn1c2ccc(CNCCOCCOCCOCCn3cc(COc4ccc(CCc5nc6cc(-c7c(C)noc7C)ccc6n5CCN5CCOCC5)cc4F)nn3)cc2c2ccc(-c3cc(C)cs3)cc21 [MS78],cell growth inhibition,NCI-H1299 p53Y220C cells; 72 h,concentration-dependently inhibited the cell growth
same,antiproliferative effect after knockdown of p300,NCI-H1299 p53Y220C cells; [12],abolished the antiproliferative effect
same,clonogenicity,NUGC-3 cells,marked reduction in clonogenicity
same,increase in the p53K382ac level,p53Y220C [7],about 4 fold
same,inhibition of cell growth at the highest concentration tested,[2],30–40%
same,GI50,[2],> 10 µM
same,K382 acetylation,"p53Y220C [8]; 0, 1, 3, 10 μM, 24 h, NCI-H1299 p53Y220C",significantly induced K382 acetylation
same,increase in p53K382ac level,"p53Y220C [8]; 10 μM, 6 h",about 2 fold
same,increase in p53K382ac level,"p53Y220C [8]; 10 μM, 24 h",about 4 fold
same,p53K382ac induction compared to compound 7,"p53Y220C [8]; 10 μM, 24 h",about 2 fold
same,p53Y220C K382 acetylation in p300 siRNA-treated cells,"p53Y220C [8]; p300 knockdown, NCI-H1299 (p53Y220C)",significantly diminished; also recorded: abolished
same,EC50,"p53Y220C [8]; read-out: ACE50 (the concentration at which 50% of p53Y220C is acetylated), 24 h, acetylation level at 10 μM MS78 as the maximum response",1.87 ± 0.3 µM
same,"effect on TIGAR, BAX, and PUMA (BBC3) genes",p53-target genes [3],little or modest effect
same,expression of p21 (CDKN1A) and Mdm2 genes,p53-target genes [3],less upregulation
same,increase in p21 mRNA expression,p53-target genes [3],8 fold
same,p53-p300 interaction (FLAG pull-down),p53Y220C and p300; NCI-H1299 p53-null cells,no interaction was observed
same,p53Y220C-p300 interaction (FLAG pull-down),p53Y220C and p300; NCI-H1299 p53Y220C cells,induced an interaction between p53Y220C and p300
same,GI50,BxPC3 (p53Y220C/−) cells,3.3 ± 1 µM
same,higher potency compared to the parent compound PK9328,BxPC3 (p53Y220C/−) cells; GI50 in BxPC3 and NUGC-3,about 4 fold
same,"expression of BAX, PUMA (BBC3), and NOXA (PMAIP1) genes",p53-target genes [9],no significant upregulation
same,"expression of DDR genes such as ATM, ATR, and CHEK1/2",p53-target genes [9],downregulation
same,"expression of heat shock protein genes such as HSPA5, HSP40 (DNAJB1), HSP1A1/B",p53-target genes [9],upregulation
same,cell growth inhibition,NCI-H1299 p53-null cells [4],did not induce any significant cell growth inhibition
same,increase in the p53K382ac level,p53Y220C [10],about 4 fold
same,clonogenicity,BxPC3 cells,marked reduction in clonogenicity
same,GI50,PNT2 cells,> 10 µM
same,K382 acetylation,NCI-H1299 p53-null cells [5],did not induce K382 acetylation
same,GI50,[6],2.7 ± 0.5 µM
same,selectivity over a panel of other BRD-containing proteins,[11],selective for the CBP/p300 BRD
